Laboratory results taken from PubChem BioAssay AID1963981 (Molecular Pharmacology Branch, DTP, NCI, 2024).
“And” between values parts separate entries of the source, which are not always exact repeats. Equal values may be shown once. Values belong to the compound of their own block, whether it stands above or below them.

System: 354836-022-R-J1-PDC multicell spheroid viability
Assay: Anticancer human tumor 354836-022-R-J1-PDC patient-derived head and neck squamous cell carcinoma cell line growth inhibition [PI3K]
Conditions: for viability, T/C: stronger effect = lower value
Method in brief: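 Tumor cells were combined with HUVEC and MSCs into spheroids, then dosed with PI3K-inhibitor combinations over half-log ranges capped near clinical Cmax or 10 microM.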
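Further: spheroids exposed to agents for seven days before the viability read.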

IC50 (curve of first compound, second compound 0.0316 µM): > 100 nM | IC50 (curve of first compound, second compound 0.1 µM): > 100 nM | IC50 (curve of first compound, second compound 0.316 µM): > 100 nM | IC50 (curve of first compound, second compound 1 µM): > 100 nM | IC50 (curve of first compound, second compound 3.16 µM): > 100 nM | IC50 (curve of first compound, second compound 10 µM): > 100 nM
Compound: Cn1ncnc1[C@H]1c2n[nH]c(=O)c3cc(F)cc(c23)N[C@@H]1c1ccc(F)cc1 + CC(Nc1ncnc2nc[nH]c12)c1cc2cccc(Cl)c2c(=O)n1-c1ccccc1
viability, T/C (second compound 0.0316 µM, first compound 0.000316 µM): 91.2% | viability, T/C (second compound 0.0316 µM, first compound 0.001 µM): 88.5% | viability, T/C (second compound 0.0316 µM, first compound 0.00316 µM): 85.4% | viability, T/C (second compound 0.0316 µM, first compound 0.01 µM): 108% | viability, T/C (second compound 0.0316 µM, first compound 0.0316 µM): 105% | viability, T/C (second compound 0.0316 µM, first compound 0.1 µM): 106% | viability, T/C (second compound 0.1 µM, first compound 0.000316 µM): 102% | viability, T/C (second compound 0.1 µM, first compound 0.001 µM): 97.2% | viability, T/C (second compound 0.1 µM, first compound 0.00316 µM): 98.2% | viability, T/C (second compound 0.1 µM, first compound 0.01 µM): 86.4% | viability, T/C (second compound 0.1 µM, first compound 0.0316 µM): 101% | viability, T/C (second compound 0.1 µM, first compound 0.1 µM): 83.1% | viability, T/C (second compound 0.316 µM, first compound 0.000316 µM): 100% | viability, T/C (second compound 0.316 µM, first compound 0.001 µM): 117% | viability, T/C (second compound 0.316 µM, first compound 0.00316 µM): 98.8% | viability, T/C (second compound 0.316 µM, first compound 0.01 µM): 104% | viability, T/C (second compound 0.316 µM, first compound 0.0316 µM): 92.7% | viability, T/C (second compound 0.316 µM, first compound 0.1 µM): 88.6% | viability, T/C (second compound 1 µM, first compound 0.000316 µM): 110% | viability, T/C (second compound 1 µM, first compound 0.001 µM): 96.5% | viability, T/C (second compound 1 µM, first compound 0.00316 µM): 110% | viability, T/C (second compound 1 µM, first compound 0.01 µM): 96.2% | viability, T/C (second compound 1 µM, first compound 0.0316 µM): 100% | viability, T/C (second compound 1 µM, first compound 0.1 µM): 79.8% | viability, T/C (second compound 3.16 µM, first compound 0.000316 µM): 108% | viability, T/C (second compound 3.16 µM, first compound 0.001 µM): 107% | viability, T/C (second compound 3.16 µM, first compound 0.00316 µM): 92.1% | viability, T/C (second compound 3.16 µM, first compound 0.01 µM): 96.7% | viability, T/C (second compound 3.16 µM, first compound 0.0316 µM): 99.6% | viability, T/C (second compound 3.16 µM, first compound 0.1 µM): 73.4% | viability, T/C (second compound 10 µM, first compound 0.000316 µM): 94.7% | viability, T/C (second compound 10 µM, first compound 0.001 µM): 87.1% | viability, T/C (second compound 10 µM, first compound 0.00316 µM): 85.8% | viability, T/C (second compound 10 µM, first compound 0.01 µM): 93.3% | viability, T/C (second compound 10 µM, first compound 0.0316 µM): 89.3% | viability, T/C (second compound 10 µM, first compound 0.1 µM): 65.2%

IC50 (curve of compound): > 1000 nM and 830 nM
Compound: CCN1CCN(Cc2ccc(Nc3ncc(F)c(-c4cc(F)c5nc(C)n(C(C)C)c5c4)n3)nc2)CC1
viability, T/C (compound 0.00316 µM): 111% [middle of 4 runs] | viability, T/C (compound 0.01 µM): 94.4% [middle of 4 runs] | viability, T/C (compound 0.0316 µM): 98.2% [middle of 4 runs] | viability, T/C (compound 0.1 µM): 90% and 99.5% and 87.3% (2×) | viability, T/C (compound 0.316 µM): 94% [middle of 4 runs]
